{"source": "ChEMBL document CHEMBL1139662", "about": "“Synthesis and biological investigation of new 4''-malonyl tethered derivatives of erythromycin and clarithromycin” (Bioorg Med Chem Lett, 2006)", "key": {"[1]": {"system": "Escherichia coli", "experiment": "Antibacterial activity against macrolide-sensitive Escherichia coli HN818", "assay_type": "functional"}, "[2]": {"system": "Escherichia coli", "experiment": "Inhibition of protein synthesis in Escherichia coli cell-free translational system", "assay_type": "functional"}}, "data": [{"smiles": "CC[C@H]1OC(=O)[C@H](C)[C@@H](OC2C[C@@](C)(OC)[C@@H](OC(=O)CC(=O)OCc3ccccc3)[C@H](C)O2)[C@H](C)[C@@H](OC2O[C@H](C)C[C@H](N(C)C)[C@H]2O)[C@](C)(O)C[C@@H](C)C(=O)[C@H](C)[C@@H](O)[C@]1(C)O", "note": "(stereo partly drawn)", "values": [{"measurement": "MIC", "setting": "[1]", "result": 8, "unit": "µg/mL"}, {"measurement": "IC50", "setting": "[2]", "result": 1100, "unit": "nM"}]}, {"smiles": "CC[C@H]1OC(=O)[C@H](C)[C@@H](OC2C[C@@](C)(OC)[C@@H](OC(=O)CC(=O)N(C)CCN(C)C)[C@H](C)O2)[C@H](C)[C@@H](OC2O[C@H](C)C[C@H](N(C)C)[C@H]2O)[C@](C)(O)C[C@@H](C)C(=O)[C@H](C)[C@@H](O)[C@]1(C)O", "note": "(stereo partly drawn)", "values": [{"measurement": "MIC", "setting": "[1]", "result": 8, "unit": "µg/mL"}, {"measurement": "IC50", "setting": "[2]", "result": 1100, "unit": "nM"}]}, {"smiles": "CC[C@H]1OC(=O)[C@H](C)[C@@H](OC2C[C@@](C)(OC)[C@@H](OC(=O)CC(=O)O)[C@H](C)O2)[C@H](C)[C@@H](OC2O[C@H](C)C[C@H](N(C)C)[C@H]2O)[C@](C)(OC)C[C@@H](C)C(=O)[C@H](C)[C@@H](O)[C@]1(C)O", "note": "(stereo partly drawn)", "values": [{"measurement": "MIC", "setting": "[1]", "result": 128, "unit": "µg/mL"}, {"measurement": "IC50", "setting": "[2]", "result": 3900, "unit": "nM"}]}, {"smiles": "CC[C@H]1OC(=O)[C@H](C)[C@@H](OC2C[C@@](C)(OC)[C@@H](OC(=O)CC(=O)OCc3ccccc3)[C@H](C)O2)[C@H](C)[C@@H](OC2O[C@H](C)C[C@H](N(C)C)[C@H]2O)[C@](C)(OC)C[C@@H](C)C(=O)[C@H](C)[C@@H](O)[C@]1(C)O", "note": "(stereo partly drawn)", "values": [{"measurement": "MIC", "setting": "[1]", "result": 8, "unit": "µg/mL"}, {"measurement": "IC50", "setting": "[2]", "result": 1200, "unit": "nM"}]}, {"smiles": "CC[C@H]1OC(=O)[C@H](C)[C@@H](OC2C[C@@](C)(OC)[C@@H](OC(=O)CC(=O)O)[C@H](C)O2)[C@H](C)[C@@H](OC2O[C@H](C)C[C@H](N(C)C)[C@H]2O)[C@](C)(O)C[C@@H](C)C(=O)[C@H](C)[C@@H](O)[C@]1(C)O", "note": "(stereo partly drawn)", "values": [{"measurement": "MIC", "setting": "[1]", "result": 128, "unit": "µg/mL"}, {"measurement": "IC50", "setting": "[2]", "result": 3700, "unit": "nM"}]}, {"smiles": "CC[C@H]1OC(=O)[C@H](C)[C@@H](O[C@H]2C[C@@](C)(OC)[C@@H](O)[C@H](C)O2)[C@H](C)[C@@H](O[C@@H]2O[C@H](C)C[C@H](N(C)C)[C@H]2O)[C@](C)(OC)C[C@@H](C)C(=O)[C@H](C)[C@@H](O)[C@]1(C)O", "note": "[CLARITHROMYCIN]", "values": [{"measurement": "MIC", "setting": "[1]", "result": 2, "unit": "µg/mL"}]}, {"smiles": "CC[C@H]1OC(=O)[C@H](C)[C@@H](O[C@H]2C[C@@](C)(OC)[C@@H](O)[C@H](C)O2)[C@H](C)[C@@H](O[C@@H]2O[C@H](C)C[C@H](N(C)C)[C@H]2O)[C@](C)(O)C[C@@H](C)C(=O)[C@H](C)[C@@H](O)[C@]1(C)O", "note": "[ERYTHROMYCIN]", "values": [{"measurement": "MIC", "setting": "[1]", "result": 2, "unit": "µg/mL"}, {"measurement": "IC50", "setting": "[2]", "result": 900, "unit": "nM"}]}]}
